Test results as given in PMC2631660 (Bioorganic & medicinal chemistry, 2008).

Legend:
[1] = target: T1, hGSTM1-1 (Homo sapiens, UniProt P09488); assay: Specific activity / enzyme kinetics of GST towards compounds in presence of GSH; type: biochemical; conditions: compound 50 µM, 37 °C
T1 sequence (P09488 2-218 limits assumed): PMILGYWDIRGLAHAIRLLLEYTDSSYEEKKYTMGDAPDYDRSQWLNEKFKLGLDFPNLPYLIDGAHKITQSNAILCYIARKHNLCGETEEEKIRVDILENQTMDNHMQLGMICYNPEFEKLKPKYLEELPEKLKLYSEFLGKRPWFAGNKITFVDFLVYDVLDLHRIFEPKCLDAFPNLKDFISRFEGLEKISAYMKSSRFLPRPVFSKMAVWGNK

[2] = target: hGSTP1-1 (Homo sapiens, UniProt P09211); assay: as above; type: biochemical; conditions: compound 50 µM, 37 °C
[3] = target: T2, hGSTA1-1 (Homo sapiens, UniProt P08263); assay: as above; type: biochemical; conditions: compound 50 µM, 37 °C
T2 sequence (P08263 1-222): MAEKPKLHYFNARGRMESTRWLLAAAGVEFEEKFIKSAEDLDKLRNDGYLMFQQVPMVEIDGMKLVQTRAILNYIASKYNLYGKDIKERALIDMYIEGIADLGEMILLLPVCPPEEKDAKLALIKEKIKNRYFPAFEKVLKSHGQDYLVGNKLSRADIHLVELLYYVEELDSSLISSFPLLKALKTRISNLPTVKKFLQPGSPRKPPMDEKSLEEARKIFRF

[4] = tested on: HL-60 cells; assay: MTT cell proliferation assay; type: cell-based; conditions: Homo sapiens, HL-60, 72 h, read-out: IC50 anti-proliferative activity

Sequence of hGSTP1-1 (P09211 2-210 limits assumed): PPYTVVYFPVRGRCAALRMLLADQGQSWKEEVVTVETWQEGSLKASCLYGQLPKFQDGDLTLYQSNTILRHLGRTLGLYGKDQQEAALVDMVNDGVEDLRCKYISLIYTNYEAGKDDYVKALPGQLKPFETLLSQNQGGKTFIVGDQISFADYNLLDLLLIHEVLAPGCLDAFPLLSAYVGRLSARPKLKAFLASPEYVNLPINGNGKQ

Work on `CCCOC(=O)N1CCN(/[N+]([O-])=N/Oc2ccc([N+](=O)[O-])cc2[N+](=O)[O-])CC1` [4c] yielded a GSTM1-1 specific activity [1] of 126.3 µmol/mg/min, a GSTP1-1 specific activity [2] of 1.2 µmol/mg/min and a GSTA1-1 specific activity [3] of 59.0 µmol/mg/min.
Work on `CCOC(=O)N1CCN(/[N+]([O-])=N/Oc2ccc([N+](=O)[O-])cc2[N+](=O)[O-])CC1C` (stereo not shown) [3a, O^2-(2,4-Dinitrophenyl) 1-[(4-Ethoxycarbonyl)-3-methylpiperazin-1-yl]diazen-1-ium-1,2-diolate] yielded a GSTM1-1 specific activity [1] of 112 µmol/mg/min, a GSTP1-1 specific activity [2] of 1.15 µmol/mg/min and a GSTA1-1 specific activity [3] of 55.5 µmol/mg/min.
With `COC(=O)N1CCN(/[N+]([O-])=N/Oc2ccc([N+](=O)[O-])cc2[N+](=O)[O-])CC1` [4b] the GSTM1-1 specific activity [1] was 102 µmol/mg/min, the GSTP1-1 specific activity [2] was 0.98 µmol/mg/min and the GSTA1-1 specific activity [3] was 45.1 µmol/mg/min.
Compound `CCOC(=O)N1CCCN(/[N+]([O-])=N/Oc2ccc([N+](=O)[O-])cc2[N+](=O)[O-])CC1` [4a] has a GSTM1-1 specific activity [1] of 38 µmol/mg/min, a GSTP1-1 specific activity [2] of 0.16 µmol/mg/min and a GSTA1-1 specific activity [3] of 16.8 µmol/mg/min.
With `CCOC(=O)N1CC(C)N(/[N+]([O-])=N/Oc2ccc([N+](=O)[O-])cc2[N+](=O)[O-])CC1C` (stereo not shown) [3d, O^2-(2,4-Dinitrophenyl) 1-[(4-Ethoxycarbonyl)-2,5-dimethylpiperazin-1-yl]diazen-1-ium-1,2-diolate] the GSTM1-1 specific activity [1] was 49 µmol/mg/min, the GSTP1-1 specific activity [2] was 0.14 µmol/mg/min and the GSTA1-1 specific activity [3] was 17.6 µmol/mg/min.
`CCOC(=O)N1CCN(/[N+]([O-])=N/Oc2ccc([N+](=O)[O-])cc2[N+](=O)[O-])C(C)C1` (stereo not shown) [3b, O^2-(2,4-Dinitrophenyl) 1-[(4-Ethoxycarbonyl)-2-methylpiperazin-1-yl]diazen-1-ium-1,2-diolate] showed a GSTM1-1 specific activity [1] of 110 µmol/mg/min, a GSTP1-1 specific activity [2] of 0.88 µmol/mg/min and a GSTA1-1 specific activity [3] of 47.0 µmol/mg/min.
With `CCOC(=O)N1C(C)CN(/[N+]([O-])=N/Oc2ccc([N+](=O)[O-])cc2[N+](=O)[O-])CC1C` (stereo not shown) [3c, O^2-(2,4-Dinitrophenyl) 1-[(4-Ethoxycarbonyl)-3,5-dimethylpiperazin-1-yl]diazen-1-ium-1,2-diolate] the GSTM1-1 specific activity [1] was 172 µmol/mg/min, the GSTP1-1 specific activity [2] was 1.17 µmol/mg/min and the GSTA1-1 specific activity [3] was 70.3 µmol/mg/min.
`CCOC(=O)N1CCN(/[N+]([O-])=N/Oc2ccc([N+](=O)[O-])cc2[N+](=O)[O-])CC1` [JS-K, O^2-(2,4-dinitrophenyl) 1-[(4-ethoxycarbonyl)piperazin-1-yl]diazen-1-ium-1,2-diolate] was tested, and the IC50 [4] was 200 to 500 nM, the GSTM1-1 specific activity [1] was 126 µmol/mg/min and the GSTP1-1 specific activity [2] was 1.36 µmol/mg/min. It also gave a GSTA1-1 specific activity [3] of 66.3 µmol/mg/min.
